System: cultured adult rat retinal ganglion cells (RGCs)
Test: Glutamate-induced toxicity in cultured adult rat retinal ganglion cells (RGC survival, Thy-1-positive cell count)
Type: cell-based
Conditions: Compound at 1 μM, 30 min pre-treatment, then 100 μM glutamate for 3 days; Thy-1-positive healthy cells counted; 70% of RGCs survived with glutamate alone
Description: Adult Sprague-Dawley rats were euthanized by CO2 asphyxiation. Their eyes were enucleated and the retinas isolated. Retinal cells were treated with of papain solution for 25 min at 37° C., then washed 3 times with 5 mL RGC culture medium (Neurobasal medium with various nutrient supplements+1% fetal calf serum). Retinal cells were dispersed by trituration. Cell suspension was placed onto poly-D-lysine- and laminin-coated 8-well chambered culture slides. The cells were then cultured in 95% air/5% CO2 at 37° C.
For glutamate-induced toxicity studies, cells were pre-treated with vehicle or the indicated compounds for 30 minutes, followed by 100 μM glutamate for 3 days. At the end of the incubation period, the cells were fixed and labeled for Thy-1, a RGC marker, by immunocytochemistry. Cell survival was quantified by manually counting Thy-1-positive healthy cells in each well.

`COC(=O)CNC(=O)c1ncccc1O` [Compound 1] was tested, and the “protection against glutamate-induced cytotoxicity (RGC survival)” value was “protective against this insult”.

Reference: patent US7625927B2, “Method of treating glaucoma” (Alcon Research, Ltd., priority 2006, dated 2009)
